The source of these data is patent US20250255847A1, “[…]s: Novel Drugs for Triple Negative Breast Cancer” (SIMMARON RSEARCH INC, priority 2024, published 2025).

One may read the EC50 as the concentration that produces a half-maximal response.

In series [1] the test system is Y705P STAT3 recruitment in IL6 promoter. Briefly: Chromatin immunoprecipitation of STAT3 response element in IL6 promoter. Particulars: 10 ng/mL EGF + 20 nM compound, 5 hrs, MDA-MB-468. Format: cell-based, human. On the procedure:
FIG. 9 illustrates an embodiment of the present invention and illustrates promoter recruitment assay of STAT3 in IL6 promoter. (A) MDA-MB-468 cells were treated with 5, 10, and 20 ng/mL doses of EGF for 5 hrs followed by immunoblot (IB) analyses of Y705 phospho and S727 phospho STAT3 in nuclear extracts. Histone 3 ([…]) IB was run as control. (B) EMSA analyses were performed in nuclear extracts of EGF (20 ng/mL)- and EGF+SIM-1 (20 nM)-treated MDA-MB-468 cells against the STAT3-specific oligonucleotide probe (Li-Cor bioscience; Cat #P/N: 829-07922) or SEQ ID NO: 1 and resolved in 6% DNA retardation gel (Invitrogen). […]
Third, to further confirm the promoter recruitment activity of Y705PSTAT3 in the IL6 promoter, chromatin immunoprecipitation assay of STAT3-response element in the IL6 promoter was performed using primer sets described under “Promoter analysis and Chromatin Immunoprecipitation (ChIP) assay” hereinabove. Briefly, MDA-MB-468 cells were incubated with 10 ng/mL EGF, EGF+SIM-1 (20 nM), and EGF+SIM-2 (20 nM) for 5 hrs followed by performing an immunoprecipitation (IP) of DNA-bound STAT3 with Y705P STAT3-specific antibody and then the precipitated DNA by PCR analysis was analyzed to identify STAT3 response element (˜121 bp long) in IL6 promoter.

The nature of series [2]: Solubility in aqueous solvent. Format: physicochemical.
Series [3] has as its target STAT3 (Homo sapiens, UniProt P40763). Briefly: Protein thermal shift assay with recombinant STAT3. The class given is binding. The arrangement: purchased Active motif 81095. The following applies: for ΔTm of STAT3: cut-off 2° C.; for lowest concentration that significantly (>2° C.) shifted the melt curve of STAT3: as low as; for EC50: non-linear hyperbolic binding curve, read-out: EC50 (half-maximal binding, maximum fluorescence versus dose). The procedure:
FIG. 5 illustrates an embodiment of the present invention and illustrates evaluations of SIM-1 and SIM-2 as STAT3 inhibitors. (A) Protein thermal shift assay was performed to assess the melting of purified recombinant STAT3 (blue; 0.5 μg protein) (Tm=melting temperature=68.88° C.). The representative melting curves were derived after adding SIM-1 (red; 4 nM), SIM-2 (purple; 8 nM), and positive control stattic (grey; 20 nM) to the STAT3 protein. The differences of melting temperature (ΔTm) between pure protein and protein+ligands are −4.54° C., −4.16° C., and 0.39° C. for SIM-1, SIM-2, and stattic (ΔTm^cut-off>2° C.). (B) Phospho protein array analysis was conducted in cell lysates of MDA-MB-468 cells treated with DMSO control (top left), 25 ng/mL EGF (top right), EGF+10 nM SIM-1 (bottom left), and EGF+SIM-2 (bottom right) for 24 hrs. Each colored arrowhead represents a specific phosphoprotein, and the description was added in the bottom of array images. S=serine and Y=tyrosine. Relative levels of (C) Tyrosine 705 (Y705) phosphorylated STAT3, (D) Serine 727 (S727) phosphorylated STAT3, (E) Tyrosine 693 (Y693) phosphorylated STAT4, (F) Tyrosine 694 ([…]) phosphorylated STAT5A had been derived after normalizing the spot densities (n=5) with respective β-actin spots. Results are mean±SD of five different spot analyses. One-way ANOVA was adopted to test the significance of mean between groups at **p<0.01, and ****p<0.0001. Ns=no significance. Thermal shift assays of increasing doses of (G) SIM-1, (H) SIM-2, and (I) stattic with purified STAT1 protein (0.5 μg protein). The respective ΔTm values were given with the plot after matching with the color code. Similarly, full-length STAT5b protein melting was assessed with (J) SIM-1, (K) SIM-2, and (L) stattic. Results are confirmed after three different experiments.
FIG. 6 illustrates an embodiment of the present invention and illustrates dose-dependent curves of maximum fluorescence for SIM1 and SIM2. Protein thermal shift assay of recombinant STAT3 was performed with increasing doses of (A) SIM-1, (B) SIM-2, and (C) positive control “Stattic”. The maximum fluorescence for each dose was derived and then plotted in GraphPad Prism software with respective doses. The resultant non-liner hyperbolic curves provide half-maximal binding (EC50) for all three compounds.
This example provides a representative study of the present disclosure to test if SIM1 and SIM2 served as ligands of STAT3. Therefore, the present invention adopted a protein thermal shift assay in which […] of recombinant human STAT3 protein (active motif) was incubated with increasing doses of SIM1 and SIM2 followed by the execution of melting analysis starting from 25 to 95° C. as described elsewhere.

Chain of STAT3 (P40763 whole entry): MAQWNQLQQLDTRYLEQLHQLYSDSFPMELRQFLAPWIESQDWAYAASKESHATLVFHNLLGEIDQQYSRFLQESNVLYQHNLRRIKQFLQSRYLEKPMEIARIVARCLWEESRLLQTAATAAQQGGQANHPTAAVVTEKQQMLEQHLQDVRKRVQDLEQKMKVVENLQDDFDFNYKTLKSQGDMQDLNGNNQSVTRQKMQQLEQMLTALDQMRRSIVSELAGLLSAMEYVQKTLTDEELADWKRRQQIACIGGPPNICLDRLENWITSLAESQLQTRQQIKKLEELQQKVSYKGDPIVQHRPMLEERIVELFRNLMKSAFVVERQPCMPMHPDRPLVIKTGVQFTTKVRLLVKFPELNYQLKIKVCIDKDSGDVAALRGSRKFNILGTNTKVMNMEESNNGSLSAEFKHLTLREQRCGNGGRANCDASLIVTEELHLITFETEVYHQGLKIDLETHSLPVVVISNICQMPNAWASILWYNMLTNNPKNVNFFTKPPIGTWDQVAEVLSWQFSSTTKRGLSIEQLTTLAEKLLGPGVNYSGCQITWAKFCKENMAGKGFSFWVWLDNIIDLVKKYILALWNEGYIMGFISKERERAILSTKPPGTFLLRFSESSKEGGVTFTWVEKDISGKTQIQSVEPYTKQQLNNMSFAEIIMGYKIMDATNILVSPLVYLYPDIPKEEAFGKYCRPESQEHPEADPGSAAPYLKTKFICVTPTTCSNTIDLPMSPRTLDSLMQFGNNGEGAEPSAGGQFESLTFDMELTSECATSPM

As for `O=C(O)CCC(=O)NCc1csc2ccc(Cl)cc12` [SIM-1, 4-[(5-chloro-1-benzothiophen-3-yl)methylamino]-4-oxobutanoic acid], the “promoter recruitment activity of Y705P STAT3 in IL6 promoter” value in series [1] is recorded as “significantly attenuated”. Also, the “solubility in aqueous solvent” value in series [2] is reported as “partly soluble to insoluble”. In series [3] (4 nM ligand), the “ΔTm of STAT3” value was −4.54 °C. Moreover, in series [3], the “lowest concentration that significantly (>2° C.) shifted the melt curve of STAT3” value was determined as 5 nM and the EC50 is 4.58 nM.

Turning to `CCOC(=O)c1c(NC(C)=O)sc2c(Cl)c(/C=N/O)ccc12` [SIM-2, ethyl 2-acetamido-7-chloro-6-(hydroxyiminomethyl)-1-benzothiophene-3-carboxylate], the “promoter recruitment activity of Y705P STAT3 in IL6 promoter” value in series [1] was “significantly attenuated”. In addition, in series [2], the “solubility in aqueous solvent” value was “partly soluble to insoluble”. In addition, the “ΔTm of STAT3” value in series [3] (6 nM ligand) is −4.16 °C. The “ΔTm of STAT3” value in series [3] (8 nM ligand (FIG. 5A legend)) was −4.16 °C. Besides, in series [3], the “lowest concentration that significantly (>2° C.) shifted the melt curve of STAT3” value is recorded as 5 nM and the EC50 worked out at 5.26 nM.
